The first test deals with HCV 1b genotype. The test is described as follows: HCV replicon assay (HCV-neo replicon cells, wild-type). The following applies: HCV 1b genotype replicon; class symbol; read-out: EC50 Range against HCV 1b. It counts as cell-based, Hepatitis C virus. Put shortly:
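HCV-neo replicon cells (wild-type) and replicon cells carrying NS5A resistance substitutions were treated with compounds; assay per O'Boyle et al. 2005, with luciferase-reporter read-out variants also used.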
In general terms: In antiviral work, replicon cells carry a viral genome segment that copies itself.
As usually defined, the EC50 is the concentration giving half of the maximal effect. Take `O=C(Nc1ccc(-c2cnc(-c3ccc(NC(=O)C4CC5CC5N4C(=O)C4CCCO4)cc3)o2)cc1)C1CC2CC2N1C(=O)C1CCCO1` [CB-7, (1S,3S,5S,1′S,3′S,5′S)-N,N′-(1,3-oxazole-2,5-diyldi-4,1-phenylene)bis(2-((2R)-tetrahydro-2-furanylcarbonyl)-2-azabicyclo[3.1.0]hexane-3-carboxamide)]: the EC50 was in the range of 0.1 to 0.999 µM. In the case of `O=C(Nc1ccc(-c2cnc(-c3ccc(NC(=O)[C@@H]4C[C@@H]5C[C@@H]5N4C(=O)[C@H](O)c4ccccc4)cc3)o2)cc1)[C@@H]1C[C@@H]2C[C@@H]2N1C(=O)[C@H](O)c1ccccc1` [CB-6, (1S,3S,5S,1′S,3′S,5′S)-N,N′-(1,3-oxazole-2,5-diyldi-4,1-phenylene)bis(2-((2R)-2-hydroxy-2-phenylacetyl)-2-azabicyclo[3.1.0]hexane-3-carboxamide)], the half-maximal effective concentration (EC50) was under 0.00457 µM. Still for that read-out and setting: with `O=C(Nc1ccc(-c2cnc(-c3ccc(NC(=O)[C@@H]4CCCN4C(=O)C(O)c4c[nH]c5ncccc45)cc3)o2)cc1)[C@@H]1CCCN1C(=O)C(O)c1c[nH]c2ncccc12` (stereo partly drawn) [Example D-15, (2S,2′S)-N,N′-(4,4′-(oxazole-2,5-diyl)bis(4,1-phenylene))bis(1-(2-hydroxy-2-(1H-pyrrolo[2,3-b]pyridin-3-yl)acetyl)pyrrolidine-2-carboxamide)] the figure was 1 to 10 µM.

Still in this test, the particulars now being: HCV 1b genotype replicon; class symbols; read-out: EC50 Range against HCV 1b.
Consider `CN(C)C(Cn1cncn1)C(=O)N1CCC[C@H]1C(=O)Nc1ccc(-c2cnc(-c3ccc(NC(=O)[C@@H]4CCCN4C(=O)C(Cn4cncn4)N(C)C)cc3)o2)cc1` (stereo partly drawn) [JR-12, (2S)-N,N′-(4,4′-(oxazole-2,5-diyl)bis(4,1-phenylene))bis(1-(2-(dimethylamino)-3-(1H-1,2,4-triazol-1-yl)propanoyl)pyrrolidine-2-carboxamide)], for which the EC50 is 0.1 to 0.999 µM.

The test is the same for the next values; noted with them: HCV 1b genotype replicon; read-out: EC50 1b.
Turning to `O=C(Nc1ccc(-c2cnc(-c3ccc(NC(=O)[C@@H]4CCCN4C(=O)C(O)c4c[nH]c5ncccc45)cc3)o2)cc1)[C@@H]1CCCN1C(=O)C(O)c1c[nH]c2ncccc12` (stereo partly drawn) [Example D-15, (2S,2′S)-N,N′-(4,4′-(oxazole-2,5-diyl)bis(4,1-phenylene))bis(1-(2-hydroxy-2-(1H-pyrrolo[2,3-b]pyridin-3-yl)acetyl)pyrrolidine-2-carboxamide)], the EC50 is 6.83 µM.

Still in this test, the particulars now being: Hepatitis C virus, HCV 1b genotype replicon; class symbol; read-out: EC50 Range against HCV 1b.
On to `Cc1nc(-c2ccc(NC(=O)[C@@H]3CCCN3C(=O)Cc3ccccc3)cc2)c(-c2ccc(NC(=O)[C@@H]3CCCN3C(=O)Cc3ccccc3)cc2)s1` [Example D-44, (2S,2′S)-N,N′-((2-methyl-1,3-thiazole-4,5-diyl)di-4,1-phenylene)bis(1-(phenylacetyl)-2-pyrrolidinecarboxamide)], for which the EC50 is 0.00457 to 0.099 µM. On the same count and under the same terms, the result for `O=C(Nc1ccc(-c2nncn2-c2ccc(NC(=O)[C@@H]3CCCN3C(=O)Cc3ccccc3)cc2)cc1)[C@@H]1CCCN1C(=O)Cc1ccccc1` [OL-15, (2S,2′S)-N,N′-(4H-1,2,4-triazole-3,4-diyldi-4,1-phenylene)bis[1-(phenylacetyl)-2-pyrrolidinecarboxamide]] reads 1 to 10 µM; that for `C[C@H](NC(=O)OCc1ccccc1)C(=O)Nc1ccc(-c2nc(CC(=O)O)oc2-c2ccc(NC(=O)[C@H](C)NC(=O)OCc3ccccc3)cc2)cc1` [OL-1, 4,5-bis[4-[[(2S)-1-oxo-2-[[(phenylmethoxy)carbonyl]amino]propyl]amino]phenyl]-2-oxazoleacetic acid], 1 to 10 µM; that for `CCOc1ccccc1C(=O)N1CCC[C@H]1C(=O)Nc1ccc(-c2nnc(-c3ccc(NC(=O)[C@@H]4CCCN4C(=O)c4ccccc4OCC)cc3)o2)cc1` [RK-8, (2S,2′S)-N,N′-(1,3,4-oxadiazole-2,5-diyldi-4,1-phenylene)bis(1-(2-ethoxybenzoyl)-2-pyrrolidinecarboxamide)], 1 to 10 µM.

As for `O=C(Nc1ccc(-c2ccc(-c3ccc(NC(=O)[C@@H]4CCCN4C(=O)c4nccc5ccccc45)cc3)o2)cc1)[C@@H]1CCCN1C(=O)c1nccc2ccccc12` [JG-62, (2S,2′S)-N,N′-(2,5-furandiyldi-4,1-phenylene)bis(1-(1-isoquinolinylcarbonyl)-2-pyrrolidinecarboxamide)], the concentration giving a half-maximal response (EC50) lay in the range of 0.1 to 0.999 µM. The same measure, in the same setting: with `COC(C(=O)N[C@@H](C)C(=O)Nc1ccc(-c2nnc(-c3ccc(NC(=O)[C@H](C)NC(=O)C(OC)c4ccccc4)cc3)o2)cc1)c1ccccc1` (stereo partly drawn) [RK-19, (2S,2′S)-N,N′-(1,3,4-oxadiazole-2,5-diyldi-4,1-phenylene)bis(2-((methoxy(phenyl)acetyl)amino)propanamide)] the figure was 0.1 to 0.999 µM. For `CN(C)[C@@H](C(=O)N1CCC[C@@H]1C(=O)N1CCC[C@H]1C(=O)Nc1ccc(-c2cnc(-c3ccc(NC(=O)[C@@H]4CCCN4C(=O)[C@H]4CCCN4C(=O)[C@@H](c4ccccc4)N(C)C)cc3)o2)cc1)c1ccccc1` [Example D-39, (2S,2′S)-N,N′-(1,3-oxazole-2,5-diyldi-4,1-phenylene)bis(1-(((2R)-1-((2R)-2-(dimethylamino)-2-phenylacetyl)-2-pyrrolidinyl)carbonyl)-2-pyrrolidinecarboxamide)], the EC50 is 1 to 10 µM. Still for that read-out and setting: with `O=C(Nc1ccc(-c2cnc(-c3ccc(NC(=O)N[C@@H]4CCN(C(=O)[C@H](O)c5ccccc5)C4)cc3)o2)cc1)N[C@@H]1CCN(C(=O)[C@H](O)c2ccccc2)C1` [FY-5, N′,N′″-(1,3-oxazole-2,5-diyldi-4,1-phenylene)bis(1-((3R)-1-((2R)-2-hydroxy-2-phenylacetyl)-3-pyrrolidinyl)urea)] the figure was 0.1 to 0.999 µM; with `C[C@H](NC(=O)[C@@H](O)c1ccccc1)C(=O)Nc1ccc(-c2nnc(-c3ccc(NC(=O)[C@H](C)NC(=O)[C@@H](O)c4ccccc4)cc3)o2)cc1` [RK-24, (2S,2′S)-N,N′-(1,3,4-oxadiazole-2,5-diyldi-4,1-phenylene)bis(2-(((2S)-2-hydroxy-2-phenylacetyl)amino)propanamide)], 0.1 to 0.999 µM. On the same count and under the same terms, the result for `O=C(C(=O)N1CCC[C@H]1C(=O)Nc1ccc(-c2nc[nH]c2-c2ccc(NC(=O)[C@@H]3CCCN3C(=O)C(=O)c3ccccc3)cc2)cc1)c1ccccc1` [JG-42, (2S,2′S)-N,N′-(1H-imidazole-4,5-diyldi-4,1-phenylene)bis(1-(oxo(phenyl)acetyl)-2-pyrrolidinecarboxamide)] reads under 0.00457 µM; that for `O=C(Nc1ccc(-c2cc(-c3ccc(NC(=O)[C@@H]4CCCN4C(=O)c4nc(Cl)cc5ccccc45)cc3)[nH]n2)cc1)[C@@H]1CCCN1C(=O)c1nc(Cl)cc2ccccc12` [OL-40, (2S,2′S)-N,N′-(1H-pyrazole-3,5-diyldi-4,1-phenylene)bis(1-((3-chloro-1-isoquinolinyl)carbonyl)-2-pyrrolidinecarboxamide)], 0.00457 to 0.099 µM. The same measure, in the same setting: with `O=C(Nc1ccc(-c2cnc(-c3ccc(NC(=O)[C@@H]4CCCN4C(=O)c4ccncc4)cc3)o2)cc1)[C@@H]1CCCN1C(=O)c1ccncc1` [JG-10, (2S,2′S)-N,N′-(1,3-oxazole-2,5-diyldi-4,1-phenylene)bis(1-isonicotinoyl-2-pyrrolidinecarboxamide)] the figure was 0.1 to 0.999 µM; with `CC(=O)N1CCC[C@H]1C(=O)Nc1ccc(-c2nc(-c3ccc(NC(=O)C4CC(=O)N(CCc5cccs5)C4)cc3)cs2)cc1` (stereo partly drawn) [Example D-46, (2S)-1-acetyl-N-[4-[4-[4-[[[5-oxo-1-[2-(2-thienyl)ethyl]-3-pyrrolidinyl]carbonyl]amino]phenyl]-2-thiazolyl]phenyl]-2-pyrrolidinecarboxamide], 1 to 10 µM; with `CC(=O)N1CCC[C@H]1C(=O)Nc1ccc(-c2cnc(-c3ccc(NC(=O)C4CCN(C(=O)OCc5ccccc5)C4)cc3)o2)cc1` (stereo partly drawn) [MS-4, benzyl 3-((4-(5-(4-((1-acetyl-L-prolyl)amino)phenyl)-1,3-oxazol-2-yl)phenyl)carbamoyl)-1-pyrrolidinecarboxylate], 0.1 to 0.999 µM. Turning to `CCc1ccccc1C(=O)N1CCC[C@H]1C(=O)Nc1ccc(-c2nnc(-c3ccc(NC(=O)[C@@H]4CCCN4C(=O)c4ccccc4CC)cc3)o2)cc1` [RK-9, (2S,2′S)-N,N′-(1,3,4-oxadiazole-2,5-diyldi-4,1-phenylene)bis(1-(2-ethylbenzoyl)-2-pyrrolidinecarboxamide)], the EC50 was in the range of 0.1 to 0.999 µM. Same read-out and setting: the result for `O=C(Nc1ccc(-c2nnc(-c3ccc(NC(=O)[C@@H]4CCCN4C(=O)Cc4ccccc4)cc3)o2)cc1)[C@@H]1CCCN1C(=O)Cc1ccccc1` [MS-9, (2S,2′S)-N,N′-(4,4′-(1,3,4-oxadiazole-2,5-diyl)bis(4,1-phenylene))bis(1-(2-phenylacetyl)pyrrolidine-2-carboxamide)] reads 0.1 to 0.999 µM.

Take `O=C(Nc1ccc(-c2cc(-c3ccc(NC(=O)[C@@H]4CCCN4C(=O)[C@H](O)c4ccccc4Cl)cc3)[nH]n2)cc1)[C@@H]1CCCN1C(=O)[C@H](O)c1ccccc1Cl` [JG-36, (2S,2′S)-N,N′-(1H-pyrazole-3,5-diyldi-4,1-phenylene)bis(1-((2R)-2-(2-chlorophenyl)-2-hydroxyacetyl)-2-pyrrolidinecarboxamide)]: the EC50 is under 0.00457 µM.

The test is the same for the next values; noted with them: Hepatitis C virus, HCV 1b genotype replicon; class symbols; read-out: EC50 Range against HCV 1b.
Turning to `Cn1cc(C(=O)C(=O)N2CCC[C@H]2C(=O)Nc2ccc(-c3cnc(-c4ccc(NC(=O)[C@@H]5CCCN5C(=O)C(=O)c5cn(C)c6ccccc56)cc4)o3)cc2)c2ccccc21` [JR-1, (2S,2′S)-N,N′-(2,5-oxazolediyldi-4,1-phenylene)bis[1-[2-(1-methyl-1H-indol-3-yl)-1,2-dioxoethyl]-2-pyrrolidinecarboxamide]], the half-maximal effective concentration (EC50) fell in the range of 0.1 to 0.999 µM. The same measure, in the same setting: with `COC(C(=O)N1C[C@H](O)C[C@H]1C(=O)Nc1ccc(-c2cnc(-c3ccc(NC(=O)[C@@H]4C[C@@H](O)CN4C(=O)C(OC)c4ccccc4)cc3)o2)cc1)c1ccccc1` (stereo partly drawn) [XY-49, (2S,4R,2′S,4′R)-N,N′-(1,3-oxazole-2,5-diyldi-4,1-phenylene)bis(4-hydroxy-1-(methoxy(phenyl)acetyl)-2-pyrrolidinecarboxamide)] the figure was 0.00457 to 0.099 µM; with `CC(C)(C)O[C@@H]1C[C@@H](C(=O)Nc2ccc(-c3cnc(-c4ccc(NC(=O)[C@@H]5C[C@@H](OC(C)(C)C)CN5C(=O)CC5CC5)cc4)o3)cc2)N(C(=O)CC2CC2)C1` [XY-61, (2S,4R,2′S,4′R)-N,N′-(1,3-oxazole-2,5-diyldi-4,1-phenylene)bis(4-tert-butoxy-1-(cyclopropylacetyl)-2-pyrrolidinecarboxamide)], 0.1 to 0.999 µM.

The same test, now with this note: Hepatitis C virus, HCV 1b genotype replicon; read-out: EC50 1b.
Turning to `CCOc1ccccc1C(=O)N1CCC[C@H]1C(=O)Nc1ccc(-c2nnc(-c3ccc(NC(=O)[C@@H]4CCCN4C(=O)c4ccccc4OCC)cc3)o2)cc1` [RK-8, (2S,2′S)-N,N′-(1,3,4-oxadiazole-2,5-diyldi-4,1-phenylene)bis(1-(2-ethoxybenzoyl)-2-pyrrolidinecarboxamide)], the EC50 is 1.85 µM.

`CC(=O)N1CCC[C@H]1C(=O)Nc1ccc(-c2cnc(-c3ccc(NC(=O)C4CCN(C(=O)OCc5ccccc5)C4)cc3)o2)cc1` (stereo partly drawn) [MS-4, benzyl 3-((4-(5-(4-((1-acetyl-L-prolyl)amino)phenyl)-1,3-oxazol-2-yl)phenyl)carbamoyl)-1-pyrrolidinecarboxylate]: the 50% effective concentration (EC50) is 0.901 µM. For the molecule `O=C(Nc1ccc(-c2nnc(-c3ccc(NC(=O)[C@@H]4CCCN4C(=O)Cc4ccccc4)cc3)o2)cc1)[C@@H]1CCCN1C(=O)Cc1ccccc1` [MS-9, (2S,2′S)-N,N′-(4,4′-(1,3,4-oxadiazole-2,5-diyl)bis(4,1-phenylene))bis(1-(2-phenylacetyl)pyrrolidine-2-carboxamide)], the EC50 is 0.15 µM.

For the origin of these results see patent US8735398B2 (Bristol-Myers Squibb Company, priority 2009, dated 2014).
